Results as given in PubChem BioAssay AID330 (DTP/NCI, 2004).
Where “and” joins values, the source holds several entries; their conditions need not be identical. Equal values may be shown once. Inconclusive results and toxic doses are left out.

System: P388 leukemia ip, CD2F1 mice, survival T/C
Assay: NCI In Vivo Anticancer Drug Screen. Data for tumor model P388 Leukemia (intraperitoneal) in CD2F1 (CDF1) mice
Settings: endpoint: median survival time, higher = longer survival
Outline: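 Mice carrying the transplanted tumor received test compound or vehicle. Survival was recorded in each group, and the value is the treated-group measurement divided by that of the vehicle-treated control group.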

[1] = dose: 60.0 mg/kg/injection, schedule: Q01DX005 (ip), vehicle: saline
[2] = dose: 120.0 mg/kg/injection, schedule: Q01DX005 (ip), vehicle: saline
[3] = dose: 100.0 mg/kg/injection, schedule: Q04DX003 (ip), vehicle: saline with Tween-80
[4] = dose: 200.0 mg/kg/injection, schedule: Q04DX003 (ip), vehicle: saline with Tween-80
[5] = dose: 400.0 mg/kg/injection, schedule: Q04DX003 (ip), vehicle: saline with Tween-80
[6] = dose: 6.25 mg/kg/injection, schedule: Q01DX009 (ip), vehicle: Klucel (hydroxypropylcellulose) (HPC)
[7] = dose: 50.0 mg/kg/injection, schedule: Q01DX005 (ip), vehicle: Klucel (hydroxypropylcellulose) (HPC)
[8] = dose: 100.0 mg/kg/injection, schedule: Q01DX005 (ip), vehicle: Klucel (hydroxypropylcellulose) (HPC)
[9] = dose: 200.0 mg/kg/injection, schedule: Q01DX005 (ip), vehicle: Klucel (hydroxypropylcellulose) (HPC)
[10] = dose: 25.0 mg/kg/injection, schedule: Q01DX005 (ip), vehicle: saline with Tween-80
[11] = dose: 50.0 mg/kg/injection, schedule: Q01DX009 (ip), vehicle: saline
[12] = dose: 100.0 mg/kg/injection, schedule: Q01DX009 (ip), vehicle: saline

COC(=O)N1CCCc2ccc3c(OC)c(OC)cc(c3c2)CC1
T/C (dose: 60.0 mg/kg/injection, schedule: Q01DX005 (ip), vehicle: Klucel (hydroxypropylcellulose) (HPC)): 100 % of control | T/C (dose: 120.0 mg/kg/injection, schedule: Q01DX005 (ip), vehicle: Klucel (hydroxypropylcellulose) (HPC)): 100 % of control | T/C (dose: 240.0 mg/kg/injection, schedule: Q01DX005 (ip), vehicle: Klucel (hydroxypropylcellulose) (HPC)): 88 % of control

CC(C(=O)c1ccc(O)cc1)(c1nc2nnc(N)n2[nH]c1=O)c1nc2nnc(N)n2[nH]c1=O
T/C [1]: 98 % of control | T/C [2]: 98 % of control | T/C (dose: 240.0 mg/kg/injection, schedule: Q01DX005 (ip), vehicle: saline): 97 % of control

CNP(=O)(OC)Oc1ccc(C(C)(C)C)cc1Cl (stereo unspecified)
T/C (dose: 50.0 mg/kg/injection, schedule: Q01DX009 (ip), vehicle: saline with Tween-80): 112 % of control | T/C (dose: 100.0 mg/kg/injection, schedule: Q01DX009 (ip), vehicle: saline with Tween-80): 106 % of control | T/C (dose: 200.0 mg/kg/injection, schedule: Q01DX009 (ip), vehicle: saline with Tween-80): 115 % of control

CCc1cc(C=C2C(=O)c3ccccc3C2=O)cc(CC)c1O
T/C (dose: 100.0 mg/kg/injection, schedule: Q04DX002 (ip), vehicle: saline): 99 % of control | T/C (dose: 200.0 mg/kg/injection, schedule: Q04DX002 (ip), vehicle: saline): 99 % of control | T/C (dose: 400.0 mg/kg/injection, schedule: Q04DX002 (ip), vehicle: saline): 99 % of control

O=C1NC(=O)C(c2ccccc2)(c2ccc(O)cc2)N1 (stereo unspecified)
T/C [3]: 115 % of control | T/C [4]: 110 % of control | T/C [5]: 115 % of control

NCCc1ccc(OCc2ccccc2)c(OCc2ccccc2)c1
T/C (dose: 6.25 mg/kg/injection, schedule: Q01DX009 (ip), vehicle: saline): 101 % of control and 107 % of control | T/C (dose: 12.5 mg/kg/injection, schedule: Q01DX009 (ip), vehicle: saline): 108 % of control and 118 % of control | T/C (dose: 25.0 mg/kg/injection, schedule: Q01DX009 (ip), vehicle: saline): 101 % of control and 109 % of control

CCOC(=O)C(NC(C)=O)(C(=O)OCC)C(C)C(O)c1ccc(OC)c(OC)c1O (stereo unspecified)
T/C (dose: 50.0 mg/kg/injection, schedule: Q01DX009 (ip), vehicle: Klucel (hydroxypropylcellulose) (HPC)): 108 % of control | T/C (dose: 100.0 mg/kg/injection, schedule: Q01DX009 (ip), vehicle: Klucel (hydroxypropylcellulose) (HPC)): 103 % of control | T/C (dose: 200.0 mg/kg/injection, schedule: Q01DX009 (ip), vehicle: Klucel (hydroxypropylcellulose) (HPC)): 109 % of control | T/C (dose: 400.0 mg/kg/injection, schedule: Q01DX009 (ip), vehicle: Klucel (hydroxypropylcellulose) (HPC)): 93 % of control

COC(=O)C1C2C=CC(CC2)C1C(=O)OC (stereo unspecified)
T/C [3]: 98 % of control | T/C [4]: 102 % of control | T/C [5]: 89 % of control

FC(F)(F)c1nnc(-c2ccccc2)nn1
T/C (dose: 100.0 mg/kg/injection, schedule: Q04DX002 (ip), vehicle: Klucel (hydroxypropylcellulose) (HPC)): 100 % of control | T/C (dose: 200.0 mg/kg/injection, schedule: Q04DX002 (ip), vehicle: Klucel (hydroxypropylcellulose) (HPC)): 104 % of control

CCCC[As](CCCC)SC1CC(OC(=O)c2ccccc2)C(OC(=O)c2ccccc2)C(COC(=O)c2ccccc2)O1 (stereo unspecified)
T/C (dose: 6.25 mg/kg/injection, schedule: Q01DX009 (ip), vehicle: saline + alcohol): 108 % of control | T/C (dose: 12.5 mg/kg/injection, schedule: Q01DX009 (ip), vehicle: saline + alcohol): 95 % of control | T/C (dose: 25.0 mg/kg/injection, schedule: Q01DX009 (ip), vehicle: saline + alcohol): 105 % of control | T/C (dose: 50.0 mg/kg/injection, schedule: Q01DX009 (ip), vehicle: saline + alcohol): 100 % of control

CN(C)CCCN=C(N)CSP(=O)(O)O
T/C [1]: 98 % of control | T/C [2]: 104 % of control

COc1ccc2c(c1)CCC1(C)CC(=O)C=C21 (stereo unspecified)
T/C [6]: 115 % of control | T/C (dose: 12.5 mg/kg/injection, schedule: Q01DX009 (ip), vehicle: Klucel (hydroxypropylcellulose) (HPC)): 114 % of control | T/C (dose: 25.0 mg/kg/injection, schedule: Q01DX009 (ip), vehicle: Klucel (hydroxypropylcellulose) (HPC)): 108 % of control

c1ccc(-c2c3ccccc3c[n+]3ccccc23)cc1
T/C (dose: 3.13 mg/kg/injection, schedule: Q01DX009 (ip), vehicle: Klucel (hydroxypropylcellulose) (HPC)): 106 % of control | T/C [6]: 92 % of control

Cc1ccnc(C2=C(O)c3ccccc3C2=O)c1
T/C [7]: 102 % of control | T/C [8]: 90 % of control | T/C [9]: 91 % of control

NC(N)=NN=c1/c(=N\N=C(N)N)c2ccccc2/c1=N/N=C(N)N
T/C (dose: 25.0 mg/kg/injection, schedule: Q01DX001 (ip), vehicle: saline): 99 % of control

CN(C)C(=O)SC1=C(c2c(Cl)cccc2Cl)C(=O)c2ccccc21
T/C [7]: 108 % of control and 112 % of control | T/C [8]: 99 % of control and 112 % of control | T/C [9]: 121 % of control and 122 % of control

FC(F)(F)c1cc(Cl)nc(Cl)n1
T/C (dose: 6.0 mg/kg/injection, schedule: Q01DX005 (ip), vehicle: saline with Tween-80): 106 % of control | T/C (dose: 12.0 mg/kg/injection, schedule: Q01DX005 (ip), vehicle: saline with Tween-80): 97 % of control | T/C [10]: 92 % of control

O=C(NCCCl)Nc1[nH]c(=O)ncc1I
T/C (dose: 1.88 mg/kg/injection, schedule: Q01DX005 (ip), vehicle: saline with Tween-80): 101 % of control | T/C (dose: 3.75 mg/kg/injection, schedule: Q01DX005 (ip), vehicle: saline with Tween-80): 101 % of control | T/C (dose: 7.5 mg/kg/injection, schedule: Q01DX005 (ip), vehicle: saline with Tween-80): 100 % of control | T/C (dose: 60.0 mg/kg/injection, schedule: Q01DX005 (ip), vehicle: saline with Tween-80): 95 % of control

CCCC1CN2CCc3cc(OC)c(OC)cc3C2CC1=O (stereo unspecified)
T/C [11]: 100 % of control and 104 % of control | T/C [12]: 112 % of control and 115 % of control | T/C (dose: 200.0 mg/kg/injection, schedule: Q01DX009 (ip), vehicle: saline): 120 % of control

O=C1C2CCC(C2)C1CN1CCCCC1 (stereo unspecified)
T/C (dose: 6.25 mg/kg/injection, schedule: Q01DX005 (ip), vehicle: saline with Tween-80): 101 % of control | T/C (dose: 12.5 mg/kg/injection, schedule: Q01DX005 (ip), vehicle: saline with Tween-80): 98 % of control | T/C [10]: 103 % of control

N#CC(C(N)=O)C1(C(C#N)C(N)=O)C(=O)Nc2ccccc21 (stereo unspecified)
T/C (dose: 25.0 mg/kg/injection, schedule: Q01DX005 (ip), vehicle: Klucel (hydroxypropylcellulose) (HPC)): 103 % of control | T/C [7]: 100 % of control | T/C [8]: 98 % of control | T/C [9]: 100 % of control

CNC(=O)OCc1c(COC(=O)NC)c(-c2ccc(Cl)c(Cl)c2)n2c1Cc1ccccc1C2
T/C (dose: 25.0 mg/kg/injection, schedule: Q01DX009 (ip), vehicle: distilled water + Tween-80): 153 % of control and 160 % of control | T/C (dose: 50.0 mg/kg/injection, schedule: Q01DX009 (ip), vehicle: distilled water + Tween-80): 155 % of control and 195 % of control | T/C (dose: 100.0 mg/kg/injection, schedule: Q01DX009 (ip), vehicle: distilled water + Tween-80): 171 % of control and 189 % of control | T/C (dose: 200.0 mg/kg/injection, schedule: Q01DX009 (ip), vehicle: distilled water + Tween-80): 117 % of control and 97 % of control

COc1ccc2c(C)cc(NN)nc2c1
T/C (dose: 6.25 mg/kg/injection, schedule: Q01DX005 (ip), vehicle: Klucel (hydroxypropylcellulose) (HPC)): 104 % of control | T/C (dose: 12.5 mg/kg/injection, schedule: Q01DX005 (ip), vehicle: Klucel (hydroxypropylcellulose) (HPC)): 103 % of control

NCc1ccccc1
T/C [11]: 103 % of control and 95 % of control | T/C [12]: 101 % of control and 109 % of control

CC(=O)OC(C)(C)/C=C/C(=O)[C@](C)(O)[C@H]1[C@H](O)C[C@@]2(C)[C@@H]3CC=C4[C@@H](C=C(O)C(=O)C4(C)C)[C@]3(C)C(=O)C[C@]12C
T/C (dose: 0.25 mg/kg/injection, schedule: Q01DX009 (ip), vehicle: saline with Tween-80): 87 % of control | T/C (dose: 1.0 mg/kg/injection, schedule: Q01DX009 (ip), vehicle: saline with Tween-80): 91 % of control | T/C (dose: 1.0 mg/kg/injection, schedule: Q01DX009 (ip), vehicle: saline): 93 % of control | T/C (dose: 2.0 mg/kg/injection, schedule: Q01DX009 (ip), vehicle: saline with Tween-80): 91 % of control | T/C (dose: 2.0 mg/kg/injection, schedule: Q01DX009 (ip), vehicle: saline): 94 % of control | T/C (dose: 4.0 mg/kg/injection, schedule: Q01DX009 (ip), vehicle: saline with Tween-80): 91 % of control | T/C (dose: 4.0 mg/kg/injection, schedule: Q01DX009 (ip), vehicle: saline): 93 % of control | T/C (dose: 8.0 mg/kg/injection, schedule: Q01DX009 (ip), vehicle: saline): 93 % of control

COc1cccc2sc(-c3ccccc3)cc(=O)c12
T/C [7]: 93 % of control | T/C [8]: 93 % of control | T/C [9]: 96 % of control
